This note sets out measurements from patent US6355665B1, “1H-4(5)-substituted imidazole derivatives, their preparation and their use as histamine H3 receptor ligands” (James Black Foundation Limited, priority 1997, dated 2002).

SMILES strings stand for the structures.

Test [1] deals with T1, Histamine H3 receptor (Cavia porcellus, UniProt Q9JI35). Kind of test: Histamine H3 radioligand binding assay, guinea pig cortex ([3H]-R-α-methylhistamine). The arrangement: The cortex was dissected, weighed and homogenised in ice-cold 20 mM Hepes-NaOH buffer; from tissue; host or cells: guinea pig cerebral cortex membranes. The procedure:
Histamine H3 Radioligand Binding Assay—Guinea Pig Cortex
Male Dunkin Hartley guinea pigs (200-300 g) were used. The whole brain was removed and immediately placed in ice-cold 20 mM Hepes-NaOH buffer (pH7.4 at 21±3° C.). The cortex was dissected, weighed and homogenised in ice-cold 20 mM Hepes-NaOH buffer (pH7.4 at 21±3° C.) (50 ml/guinea-pig cortex) using a polytron (Kinematica AG; PT-DA 3020/2TS, 3×3 s). The homogenate was centrifuged at 100×g for 5 min and the supernatants pooled and stored at 4° C. The pellets were rehomogenised in fresh ice-cold buffer (80 ml) and recentrifuged (100×g for 5 min). The supernatants were pooled and pellets rehomogenised and recentrifuged (100×g for 5 min). All supernatants were pooled and centrifuged at 39,800×g for 12 min at 4° C. The final pellet was resuspended in 20 mM Hepes-NaOH buffer (pH7.4 at 21±3° C.) to a tissue concentration of 7.5 mg.ml^−1, using a teflon-in-glass homogeniser.
Incubation Conditions and Data Analysis
These were essentially identical to those used for the guinea pig ileum myenteric plexus assay described above, except that the final assay concentration of [^3H]-R-α-methylhistamine was 0.1 nM. Typical variance in this assay is ±0.12 log units.

In test [2] the target is T1, Histamine H3 receptor. Kind of test: ileal longitudinal muscle, myenteric plexus functional assay (rightward shift of R-(α)-methylhistamine E/[A] curves, Schild). It counts as cell-based. The arrangement: the longitudinal muscle layer and adhering myenteric plexus was teased away; from tissue; host or cells: guinea pig ileal longitudinal muscle with myenteric plexus (organ bath). Particulars: guinea pig ileum longitudinal muscle myenteric plexus, electrically stimulated; antagonism of R-(α)-methylhistamine; typical variance ±0.15 log units; read-out: pKB (functional assay) - ileum (converted). The method, then:
The biological activity of the compounds of the examples was measured using the ileal longitudinal muscle, myenteric plexus assay described by Paton and Aboo Zar (J. Physiol. 1968, 194, 13-33). Male Dunkin-Hartley guinea pigs (250-300 g) were employed. Briefly, a 50 cm portion of ileum proximal to the caecum was removed, after discarding the terminal 20 cm. Ileal segments (3 cm) were cleaned by passing Krebs-Henseleit buffer containing 3 μM mepyramine gently through the ileum using a Pasteur pipette (size: 13.8 cm length, 0.65 cm diameter). To avoid unnecessary damage to the tissue, Krebs-Henseleit buffer was passed through the ileal segment, while it was lying horizontally on a petri dish. Therefore, the ileum was not over-distended and the buffer flowed through with ease. Each segment was then passed over a Pasteur pipette and the longitudinal muscle layer and adhering myenteric plexus was teased away using moist cotton wool, by stroking tangentially away from the mesenteric attachment. The tissues were suspended in 20 ml organ baths containing Krebs-Henseleit buffer at 37±1° C. and gassed with 95% CO2/5% O2. The tissues were ligated to two parallel stainless steel wires, situated between two platinum electrodes (0.76 cm length, 0.06 cm diameter). All measurements were recorded isometrically (Grass FTO3 transducer). Following an initial loading tension of 1 g, the tissues were stimulated with electrical pulses at a frequency of 0.1 Hz and a pulse duration of 0.5 msec, as described by Kosterlitz & Watt (Br. J. Pharmacol. 1968, 266-276). Initially, the tissues were stimulated at supramaximal (1.3 fold times maximal) voltage for a period of 30 min and then the tissues were washed and re-stimulated. A “sighter dose” of the selective histamine H3-receptor agonist, R-(α)-methylhistamine (0.3 μM) (Arrang et al. Nature, 1987, 117-123), was administered. Upon generation of response, the “sighter dose” was removed from the tissues by “washout” (6 washes over 60 min) and during this period the electrical stimulation was switched off. The tissues were then re-stimulated and allowed to stabilise prior to the addition of drug treatments, which were allocated on a randomised block basis to the organ baths. Following the incubation period, a single cumulative E/[A] curve was obtained. The experimental E/[A] curve data was expressed as the percentage inhibition of the peak height of electrically-stimulated contraction. Antagonist affinity values were calculated from the degree of rightward shift of the R-(α)-methylhistamine E/[A] curves using Schild's methods (Arunlakshana & Schild Br. J. Pharmacol. 1959, 48-58). Typical variance in this assay is ±0.15 log units.

Test [3] concerns the target T1, Histamine H3 receptor. Kind of test: Histamine H3 radioligand binding assay, guinea pig ileum ([3H]-R-α-methylhistamine). Details: The cortex was dissected, weighed and homogenised in ice-cold 20 mM Hepes-NaOH buffer; from tissue; host or cells: guinea pig cerebral cortex membranes. As to conditions: guinea pig ileum longitudinal muscle myenteric plexus membranes; [3H]-R-α-methylhistamine 3 nM; typical variance ±0.12 log units; read-out: pKI (binding assay) - ileum (converted). The method, then: Histamine H3 Radioligand Binding Assay—Guinea Pig Ileum
Male Dunkin Hartley guinea pigs (200-300 g) were used. The small intestine was rapidly removed (cut ^˜5 cm from caecum and 5 cm from stomach) and placed in ice-cold 20 mM Hepes-NaOH buffer (pH7.4 at 21±3° C.). The tissue was cut into ^˜10 cm segments, flushed through with ice-cold 20 mM Hepes-NaOH buffer and placed in a beaker containing fresh buffer at 4° C. 10 cm segments of ileum were threaded onto a glass pipette and the longitudinal muscle myenteric plexus was peeled away from the circular muscle using damp cotton-wool. Longitudinal muscle myenteric plexus was immediately placed in ice-cold Viaspan® solution (^˜100 ml for tissue from 3 guinea pigs) and placed in the refrigerator for 24 hours.
Pre-soaked tissue was weighed and minced with scissors. The tissue was then homogenised in Viaspan® using a polytron (Kinematica AG; PT-DA 3020/2TS, 3×^˜1-2 s). 50 ml of 500 mM Tris HCl (pH6.9 at 21±3° C.) was added to the tissue and the mixture centrifuged at 39,800×g for 12 min at 4° C. The supernatant was discarded and rehomogenised in 100 ml ice-cold 20 mM Hepes-NaOH buffer (pH7.4 at 21±3° C.) using a teflon-in-glass homogeniser (setting 10; 3×). The homogenate was recentrifuged at 39,800×g and the pellet resuspended in 20 mM Hepes-NaOH buffer (pH7.4 at 21±3° C.), to a tissue concentration of 50 mg.ml^−1, using a polytron (Brinkman, PT10, 3×^˜1 s).
Guinea pig ileum longitudinal muscle myenteric plexus membranes (400 μl) were incubated for 165 min at 21±3° C. in a final volume of 500 μl with 20 mM Hepes-NaOH buffer containing [^3H]-R-α-methylhistamine (50 μl; 3 nM) and competing compound. Total and non-specific binding of [^3H]-R-α-methylhistamine were defined using 50 μl of buffer and 50 μl of 10 μM thioperamide, respectively. The assay was terminated by rapid filtration through Whatman GF/B filters, presoaked (2 hr) in 0.1% polyethyleneimine, using a Brandell Cell Harvester. The filters were washed (3×3 ml) with ice-cold 50 mM Tris-HCl (pH6.9 at 21±3° C.), transferred into scintillation vials, 5 ml liquid scintillation cocktail was added and after 4 hours the bound radioactivity was determined by counting (4 min) in a Beckman liquid scintillation counter.
Data are analysed using GraphPad prism and the general equation for a competition curve with variable Hill slope (nH). [formula]
X is the log concentration of competing compound,
Y is the binding obtained at each concentration of X,
pIC50 is the […] required to compete for half of the specific binding.
The IC50 is converted to the K1 using the Cheng Prusoff equation,
IC50 is the concentration of competitor required to compete for half the specific binding,
L is the radioligand concentration used,
KD is the equilibrium dissociation constant for the radioligand determined by saturation experiments.
Typical variance in this assay is ±0.12 log units.

[4] abbreviates: guinea pig cortex membranes, [3H]-R-α-methylhistamine 0.1 nM, typical variance ±0.12 log units, read-out: pKI (binding assay) - cortex (converted).

T1 sequence (Q9JI35 whole entry): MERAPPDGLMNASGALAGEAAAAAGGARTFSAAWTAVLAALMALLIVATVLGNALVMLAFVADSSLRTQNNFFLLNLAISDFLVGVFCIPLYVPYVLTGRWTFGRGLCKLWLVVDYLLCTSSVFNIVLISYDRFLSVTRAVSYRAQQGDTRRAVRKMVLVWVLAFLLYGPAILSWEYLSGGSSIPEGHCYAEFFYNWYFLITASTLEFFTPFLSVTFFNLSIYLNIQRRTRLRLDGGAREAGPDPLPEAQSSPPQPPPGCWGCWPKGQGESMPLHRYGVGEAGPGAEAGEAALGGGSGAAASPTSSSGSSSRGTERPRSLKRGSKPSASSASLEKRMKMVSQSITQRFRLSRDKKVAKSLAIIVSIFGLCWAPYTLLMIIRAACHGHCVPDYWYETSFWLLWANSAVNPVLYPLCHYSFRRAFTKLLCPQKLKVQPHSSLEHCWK

Consider `O=S(=O)(CCCCc1c[nH]cn1)NCc1ccc(Cl)cc1` [Example 1, N-(4-Chlorobenzyl)-4-(1H-imidazol-4-yl)-1-butanesulfonamide], for which the Ki was 2.63 nM at Histamine H3 receptor [1] (setting [4]) and 8.51 nM at Histamine H3 receptor [3]. The Kb on Histamine H3 receptor [2] was 8.71 nM.

With `O=S(=O)(CCCCCc1c[nH]cn1)CCc1ccc(Cl)cc1` [Example 26, [5-(1H-Imidazol-4-yl)pentyl] 4-chlorophenethyl sulfone], the Ki was 4.47 nM at Histamine H3 receptor [1] (setting [4]) and 10.2 nM on Histamine H3 receptor [3]. Further, the Kb at Histamine H3 receptor [2] is 7.76 nM.

With `O=S(=O)(CC(O)CCCc1c[nH]cn1)NCc1ccc(Cl)cc1` (centres unmarked) [Example 6, N-(4-Chlorobenzyl)-2-hydroxy-5-(1H-imidazol-4-yl)-1-pentanesulfonamide], the values for the Ki at Histamine H3 receptor [1] (setting [4]) and at Histamine H3 receptor [3] were 5.01 nM and 12.6 nM, respectively. Also, on Histamine H3 receptor [2], the Kb was 16.2 nM.

Turning to `O=S(=O)(CC(O)CCCc1c[nH]cn1)NCCc1ccc(Cl)cc1` (centres unmarked) [Example 12, N-(4-Chlorophenethyl)-2-hydroxy-5-(1H-imidazol-4-yl)-1-pentanesulfonamide], the Ki on Histamine H3 receptor [1] (setting [4]) was 14.1 nM; on Histamine H3 receptor [3], 60.3 nM. In addition, the Kb on Histamine H3 receptor [2] was 49 nM.

With `O=S(=O)(CCCCCc1c[nH]cn1)Cc1ccc(Cl)cc1` [Example 27, [5-(1H-Imidazol-4-yl)pentyl] 4-chlorobenzyl sulfone], the Ki on Histamine H3 receptor [1] (setting [4]) was 0.661 nM; at Histamine H3 receptor [3], 11.7 nM. For the same compound, on Histamine H3 receptor [2], the Kb was 14.1 nM.

With `O=S(=O)(CCCCCc1c[nH]cn1)NCc1ccc(Cl)cc1` [Example 5, N-(4-Chlorobenzyl)-5-(1H-imidazol-4-yl)-1-pentanesulfonamide], the Ki on Histamine H3 receptor [1] (setting [4]) was 2.63 nM; on Histamine H3 receptor [3] it was 1.86 nM. On Histamine H3 receptor [2], the Kb is 3.47 nM.

For the compound `NCCCN(Cc1ccc(Cl)cc1)S(=O)(=O)CCCCCc1c[nH]cn1` [Example 35, N-(4-Chlorobenzyl)-N-(3-aminopropyl)-5-(1H-imidazol-4-yl)-1-pentanesulfonamide], the Ki on Histamine H3 receptor [1] (setting [4]) was 18.2 nM. In addition, the Kb on Histamine H3 receptor [2] was 151 nM.

Turning to `O=S(=O)(/C=C/C=C/c1c[nH]cn1)NCc1ccc(Cl)cc1` [Example 41, (E,E)-N-(4-Chlorobenzyl)-4-(1H-imidazol-4-yl)-1-but-1,3-dienesulfonamide], the Ki at Histamine H3 receptor [1] (setting [4]) was 1580 nM. For the same compound, the Kb at Histamine H3 receptor [2] is 2630 nM.

With `O=S(=O)(CCCCCc1c[nH]cn1)NCC1CCCCC1` [Example 17, N-Cyclohexylmethyl-5-(1H-imidazol-4-yl)-1-pentanesulfonamide], at Histamine H3 receptor [1] (setting [4]), the Ki is 21.9 nM. In addition, the Kb at Histamine H3 receptor [2] is 46.8 nM.

As for `O=S(=O)(CCCCCc1c[nH]cn1)NCc1ccc(Br)cc1` [Example 15, N-(4-Bromobenzyl)-5-(1H-imidazol-4-yl)-1-pentanesulfonamide], the Ki at Histamine H3 receptor [1] (setting [4]) is 0.891 nM. Further, the Kb on Histamine H3 receptor [2] is 3.39 nM.

Regarding `O=S(=O)(/C=C/CCc1c[nH]cn1)NCc1ccc(Cl)cc1` [Example 3, (E)-N-(4-Chlorobenzyl)-4-(1H-imidazol-4-yl)-1-but-1-enesulfonamide], the Ki at Histamine H3 receptor [1] (setting [4]) is 2.75 nM; on Histamine H3 receptor [3] it was 10.2 nM. Moreover, the Kb on Histamine H3 receptor [2] is 12.6 nM.

On to `O=S(=O)(CC(O)CCCc1c[nH]cn1)NCc1cccc(Cl)c1` (centres unmarked) [Example 22, N-(3-Chlorobenzyl)-2-hydroxy-5-(1H-imidazol-4-yl)-1-pentanesulfonamide], for which, at Histamine H3 receptor [1] (setting [4]), the Ki was 28.8 nM. Moreover, on Histamine H3 receptor [2], the Kb was 79.4 nM.

Consider `O=S(=O)(CCCCCc1c[nH]cn1)N(Cc1ccccc1)Cc1ccc(Cl)cc1` [Example 36, N-Benzyl-N-(4-chlorobenzyl)-5-(1H-imidazol-4-yl)-1-pentanesulfonamide], for which the Ki at Histamine H3 receptor [1] (setting [4]) is 200 nM. On Histamine H3 receptor [2], the Kb is 1550 nM.

`O=S(=O)(CCCCc1c[nH]cn1)CCc1ccccc1` [Example 23, [4-(1H-Imidazol-4-yl)butyl]phenethyl sulfone]: the Ki at Histamine H3 receptor [1] is 47.9 nM. At Histamine H3 receptor [2], the Kb was 214 nM.
